Results from publication PMC8523698, “Preclinical characterization of an intravenous coronavirus 3CL protease inhibitor for the potential treatment of COVID19” (Nature Communications, 2021).
pKi: −log10 of the molar value. “And” between values parts separate entries of the source, which are not always exact repeats. Equal entries are not always repeated. Where two headings read alike, the source gives them in different places.

Key:
[1] = Human pharmacokinetic, Ceff and dose predictions; conditions: Fig 6C reference line, drawn from 0 to 72 h; head gives 500 nM
[2] = read-out: competitive Ki; vendor-verified compound file; ref Simcyp library; cited from earlier work
[3] = tested on: SARS-CoV-2 Washington strain 1 (USA_WA1/2020); assay type: cell-based; parameters: Percent Effect / Percent Effect (EC50 data): scale not given: direction of the effect not stated beside the values
MRC-5 cells = test: Cytotoxicity in MRC-5 cells
HCoV-229E = test: Viral CPE assay in MRC-5 cells (CellTiter Glo); assay type: cell-based
MDR1/P-gp = MDR1/P-gp (Homo sapiens, UniProt P08183); test: Transporter inhibition using membrane vesicles; conditions: uptake of N-methyl quinidine by MDR1; control inhibitor concentration 4.000 uM; single replicates
Sequence of MDR1/P-gp (P08183 whole entry, the tested form may be a part): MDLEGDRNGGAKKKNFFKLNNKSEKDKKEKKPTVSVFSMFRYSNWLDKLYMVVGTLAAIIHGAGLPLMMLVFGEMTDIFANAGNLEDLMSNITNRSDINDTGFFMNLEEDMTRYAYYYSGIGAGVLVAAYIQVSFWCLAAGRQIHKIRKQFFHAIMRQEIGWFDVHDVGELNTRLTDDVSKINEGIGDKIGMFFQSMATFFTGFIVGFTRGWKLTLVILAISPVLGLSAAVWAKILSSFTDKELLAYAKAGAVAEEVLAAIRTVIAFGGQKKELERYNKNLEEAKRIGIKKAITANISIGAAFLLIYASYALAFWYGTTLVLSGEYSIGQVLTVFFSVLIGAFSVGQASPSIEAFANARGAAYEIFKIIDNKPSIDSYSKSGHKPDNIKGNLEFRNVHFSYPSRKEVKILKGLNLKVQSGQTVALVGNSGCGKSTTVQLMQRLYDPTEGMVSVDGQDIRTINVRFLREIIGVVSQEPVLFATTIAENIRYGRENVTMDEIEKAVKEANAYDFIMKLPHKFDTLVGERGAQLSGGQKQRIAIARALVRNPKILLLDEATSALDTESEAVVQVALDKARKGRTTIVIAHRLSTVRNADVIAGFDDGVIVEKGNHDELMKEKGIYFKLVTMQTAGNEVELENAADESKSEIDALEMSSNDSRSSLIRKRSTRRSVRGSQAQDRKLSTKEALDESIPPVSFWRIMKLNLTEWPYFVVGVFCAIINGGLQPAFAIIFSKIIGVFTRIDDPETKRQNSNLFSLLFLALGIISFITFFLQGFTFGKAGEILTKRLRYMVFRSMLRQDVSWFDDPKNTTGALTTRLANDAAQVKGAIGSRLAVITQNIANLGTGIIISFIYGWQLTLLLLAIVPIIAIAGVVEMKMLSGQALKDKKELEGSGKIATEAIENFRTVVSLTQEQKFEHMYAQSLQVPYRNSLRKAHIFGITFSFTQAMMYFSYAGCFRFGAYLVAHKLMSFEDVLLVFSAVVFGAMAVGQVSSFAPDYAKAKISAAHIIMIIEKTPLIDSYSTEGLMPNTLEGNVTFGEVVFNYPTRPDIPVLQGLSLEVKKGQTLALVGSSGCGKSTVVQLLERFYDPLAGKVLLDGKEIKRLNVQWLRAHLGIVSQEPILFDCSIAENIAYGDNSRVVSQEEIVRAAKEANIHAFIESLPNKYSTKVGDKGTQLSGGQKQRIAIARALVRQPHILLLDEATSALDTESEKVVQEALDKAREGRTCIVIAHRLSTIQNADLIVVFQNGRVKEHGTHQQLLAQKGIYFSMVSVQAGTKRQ

[4] = Rat 24-h continuous intravenous infusion GLP toxicity study; assay type: in vivo, Sprague-Dawley rats; conditions: Fig 6C reference line 0 to 72 h

COc1cccc2[nH]c(C(=O)N[C@@H](CC(C)C)C(=O)N[C@@H](C[C@@H]3CCNC3=O)C(=O)CO)cc12 [Active]
Ceff SARS-COV2 (+P-gp inhib)= 500 nM [1]: 0.5

CC(O)C(C)n1ncn(-c2ccc(N3CCN(c4ccc(OCC5COC(Cn6cncn6)(c6ccc(Cl)cc6Cl)O5)cc4)CC3)cc2)c1=O (stereo not drawn) [OH-itraconazole]
pKi [2]: 8.64

COc1cccc2[nH]c(C(=O)N[C@@H](CC(C)C)C(=O)N[C@@H](C[C@@H]3CCNC3=O)C(=O)COP(=O)(O)O)cc12 [PF-07304814-00]
Percent Effect ([3]; 0.00976562 uM): 0.053% and 0.085%
Percent Effect ([3]; 0.0195312 uM): 2.09% and 3.15%
Percent Effect ([3]; 0.0390625 uM): 0.085% and 9.35%
Percent Effect ([3]; 0.078125 uM): -0.27% and 0.54%
Percent Effect (EC50 data) ([3]; 0.195312 uM): -0.82%
Percent Effect ([3]; 0.3125 uM): 2.28% and 1.63%
Percent Effect ([3]; 0.390625 uM): 7.76% and 0.81% and 1.70% and 4.09% and 0.21% and 2.38% and 2.51% and 3.73%
Percent Effect (EC50 data) ([3]; 0.390625 uM): -0.72%
Percent Effect ([3]; 0.625 uM): -1.46% and -0.53%
Percent Effect (EC50 data) ([3]; 0.78125 uM): 8.72% and 9.53%
Percent Effect (EC50 data) ([3]; 3.125 uM): 96.73% and 101.34%
Percent Effect (EC50 data) ([3]; 5 uM): 98.13% and 94.20%
Percent Effect (EC50 data) ([3]; 6.25 uM): 105.65% and 94.43%
Percent Effect (EC50 data) ([3]; 25 uM): 105.56%
Percent Effect (EC50 data) ([3]; 31.6456 uM): 95.69% and 95.38% and 91.49% and 94.38%
Percent Effect (EC50 data) ([3]; 50 uM): 95.66%
Percent Effect (EC50 data) ([3]; 100 uM): 87.92% and 94.81% and 91.90% and 95.50%
% Well Effect (CC50 data) (MRC-5 cells; minus efflux inhibitor, 0.031642 uM): -10.74%
% Well Effect (CC50 data) (MRC-5 cells; minus efflux inhibitor, 0.100053 uM): -6.45% and -4.39%
% Well Effect (CC50 data) (MRC-5 cells; minus efflux inhibitor, 3.16311 uM): -8.68%
% Well Effect (CC50 data) (MRC-5 cells; minus efflux inhibitor, 10.0018 uM): -6.54%
% Well Effect (CC50 data) (MRC-5 cells; plus 0.5 uM efflux inhibitor, 0.031642 uM): -2.54% and -3.43%
% Well Effect (CC50 data) (MRC-5 cells; plus 0.5 uM efflux inhibitor, 0.100053 uM): -2.51% and -2.24% and 4.92%
% Well Effect (CC50 data) (MRC-5 cells; plus 0.5 uM efflux inhibitor, 1.00035 uM): -1.28% and -4.08%
% Well Effect (CC50 data) (MRC-5 cells; plus 0.5 uM efflux inhibitor, 3.16311 uM): 5.87% and 5.13%
% Well Effect (CC50 data) (MRC-5 cells; plus 0.5 uM efflux inhibitor, 31.6256 uM): -2.89% and -4.52%
% Well Effect (CC50 data) (MRC-5 cells; plus 0.5 uM efflux inhibitor, 100 uM): 2.77% and -3.47% and 5.60% and -0.62%
% Well Effect (EC50 data) (HCoV-229E; minus efflux inhibitor, 0.000949 uM): 1.31% and -4.82% and -7.06% and -4.29% and -0.06%
% Well Effect (EC50 data) (HCoV-229E; minus efflux inhibitor, 0.300053 uM): 80.07% and 80.97% and 97.35% and 80.44% and 65.29% and 92.74%
% Well Effect (EC50 data) (HCoV-229E; minus efflux inhibitor, 0.948767 uM): 81.04% and 93.59% and 91.22% and 85.19% and 91.91% and 88.72%
% Well Effect (EC50 data) (HCoV-229E; minus efflux inhibitor, 3 uM): 79.54% and 90.29% and 94.42% and 83.20% and 94.29% and 89.17%
% Well Effect (EC50 data) (HCoV-229E; plus 0.5 uM efflux inhibitor, 0.094893 uM): 70.28% and 62.16% and 55.71% and 62.75% and 53.71% and 73.85%
% Well Effect (EC50 data) (HCoV-229E; plus 0.5 uM efflux inhibitor, 0.300053 uM): 83.32% and 95.05% and 90.93% and 79.15% and 93.97% and 90.05%
% Well Effect (EC50 data) (HCoV-229E; plus 0.5 uM efflux inhibitor, 0.948767 uM): 82.39% and 96.75% and 87.38% and 79.38% and 95.45% and 97.43%
% Well Effect (EC50 data) (HCoV-229E; plus 0.5 uM efflux inhibitor, 3 uM): 80.02% and 92.89% and 93.90% and 81.60% and 91.07% and 95.86%

COc1cccc2[nH]c(C(=O)N[C@@H](CC(C)C)C(=O)N[C@@H](C[C@@H]3CCNC3=O)C(=O)COP(=O)(O)O)cc12 [PF-073048141]
CC50 (VeroE6-EGFP cells): > 50 µM
CC50 (VeroE6-EGFP cells; n=2): > 50 µM

C/C=C/C[C@@H](C)C(=O)[C@H]1C(=O)N[C@@H](C(C)C)C(=O)N(C)CC(=O)N(C)[C@@H](CC(C)C)C(=O)N[C@@H](C(C)C)C(=O)N(C)[C@@H](CC(C)C)C(=O)N[C@@H](C)C(=O)N[C@H](C)C(=O)N(C)[C@@H](CC(C)C)C(=O)N(C)[C@@H](CC(C)C)C(=O)N(C)[C@@H](C(C)C)C(=O)N1C [PSC833]
% PGP Uptake Activity (MDR1/P-gp): 0.2057% (2×) and -0.01029% (2×) and -0.1954% (2×)

COc1cccc2[nH]c(C(=O)N[C@@H](CC(C)C)C(=O)N[C@@H](C[C@@H]3CCNC3=O)C(=O)COP(=O)(O)O)cc12 [Pf-4814]
Reg tox Day 1 Rat with Pf-4814 Actove (Cave, uM) ([4]; Day 1, dosed with Pf-4814, Cave of active): 10.7 µM

COc1cccc2[nH]c(C(=O)N[C@@H](CC(C)C)C(=O)N[C@@H](C[C@@H]3CCNC3=O)C(=O)CO)cc12 [Pf-5231]
Reg tox Day 1 Rat with Pf-5231 Actove (Cave,uM) ([4]; Day 1, dosed with Pf-5231, Cave of active): 10.7 µM
